Measurements published in patent US10689673B2, “Bioconversion process for producing nylon-7, nylon-7,7 and polyesters” (INVISTA NORTH AMERICA S.A.R.L., priority 2011, dated 2020).

Assays:
[1] = molecular target: T1, Citrobacter amalonaticus methylaspartate ammonia lyase (MAL) (Citrobacter amalonaticus, UniProt O66145); assay: Biotransformation of beta-methyl aspartate with I4 lyase strain cell extract; assay type: biochemical; settings: 10 mM substrate, 5 or 20 g/L whole cell equivalent, 30° C., after 1 hour
T1 construct: made in house; host or cells: E. coli BL21 (DE3), pET21-a, cell-free extract
T1 sequence (O66145 whole entry): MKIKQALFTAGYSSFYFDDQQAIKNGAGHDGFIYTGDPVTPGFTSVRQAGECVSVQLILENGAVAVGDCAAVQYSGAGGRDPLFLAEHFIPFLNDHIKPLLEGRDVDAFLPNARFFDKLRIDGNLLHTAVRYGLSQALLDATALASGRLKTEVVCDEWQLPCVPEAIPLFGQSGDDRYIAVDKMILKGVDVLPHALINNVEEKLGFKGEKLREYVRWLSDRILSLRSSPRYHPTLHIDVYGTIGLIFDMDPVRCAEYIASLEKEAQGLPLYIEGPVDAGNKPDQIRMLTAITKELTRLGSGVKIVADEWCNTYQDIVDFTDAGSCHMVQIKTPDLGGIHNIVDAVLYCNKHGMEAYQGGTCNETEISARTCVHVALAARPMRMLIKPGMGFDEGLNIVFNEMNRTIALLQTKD

[2] = molecular target: T2, Clostridium tetanomorphum methylaspartate ammonia lyase (MAL) (Clostridium tetanomorphum, UniProt Q05514); assay: Biotransformation of beta-methyl aspartate with I5 lyase strain cell extract; assay type: biochemical; settings: 10 mM substrate, 5 or 20 g/L whole cell equivalent, 30° C., after 1 hour
T2 construct: made in house; host or cells: E. coli BL21 (DE3), pET21-a, cell-free extract
T2 sequence (Q05514 whole entry): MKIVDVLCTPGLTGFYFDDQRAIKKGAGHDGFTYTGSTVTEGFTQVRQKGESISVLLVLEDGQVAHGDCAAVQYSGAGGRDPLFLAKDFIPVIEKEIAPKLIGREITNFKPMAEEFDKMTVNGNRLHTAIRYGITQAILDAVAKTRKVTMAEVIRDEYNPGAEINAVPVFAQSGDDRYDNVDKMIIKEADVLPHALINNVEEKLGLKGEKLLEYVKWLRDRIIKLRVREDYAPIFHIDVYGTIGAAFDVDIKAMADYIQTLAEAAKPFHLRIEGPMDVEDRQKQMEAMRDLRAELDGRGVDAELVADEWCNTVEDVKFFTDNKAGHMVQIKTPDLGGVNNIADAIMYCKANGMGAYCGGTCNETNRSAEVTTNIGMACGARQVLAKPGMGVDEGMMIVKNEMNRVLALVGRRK

[3] = system: Aspergillus oryzae methylaspartate ammonia lyase (MAL); settings: 10 mM substrate, 5 or 20 g/L whole cell equivalent, 30° C., 1, 5 and 18 hours
[4] = molecular target: T3, Haemophilus influenzae YciA thioesterase (Haemophilus influenzae, UniProt P44886); assay: Biotransformation of pimeloyl-CoA to pimelic acid with YciA thioesterase cell free extract; assay type: biochemical; settings: 1 mM substrate, ~15 g/L whole cell equivalents, pH 7.5, 20° C., after 1 hour
T3 construct: made in house; host or cells: E. coli BL21 (DE3), cell-free extract
T3 sequence (P44886 whole entry): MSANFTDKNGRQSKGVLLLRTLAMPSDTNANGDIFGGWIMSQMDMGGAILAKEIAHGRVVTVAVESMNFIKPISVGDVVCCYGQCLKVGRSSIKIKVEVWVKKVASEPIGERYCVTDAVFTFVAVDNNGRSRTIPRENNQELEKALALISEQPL
Procedure: Biotransformations were carried out in a final volume of 2 mL. The biotransformations comprised of 1 mM substrate, 200 mM KCl and 50 mM potassium Hepes (pH 7.5). Negative controls comprised of cells harbouring the empty vector The biocatalyst was charged as a cell free extract to give a final concentration of ˜15 g/L whole cell equivalents. The reactions were carried out at ambient temperature (20° C.) in 15 mL falcon tubes with stirring. Each biotransformation was sampled after 1 h, 4 h and 24 h and analysed by HPLC (Agilent 1100) on a Phenomenex Luna C18 250×4.6 mm, 5 micron column. […] The filtrates were analysed by HPLC at 260 nm for the disappearance of pimeloyl-CoA (Rt 12.39 mins) and the formation of CoA (Rt 7.98 minutes), both which absorbs strongly at this wavelength, while pimlic acid was not detectable by UV at 260 nm. Pimelic acid formation was confirmed by LC-MS.

[5] = molecular target: T4, Nocardia sp. carboxylic acid reductase (CAR) (Nocardia iowensis, UniProt Q6RKB1); assay: Carboxylic acid reductase (CAR) spectrophotometric assay of NADPH consumption; assay type: biochemical
T4 construct: made in house; host or cells: E. coli BL21, cell-free extract
T4 sequence (Q6RKB1 2-1174): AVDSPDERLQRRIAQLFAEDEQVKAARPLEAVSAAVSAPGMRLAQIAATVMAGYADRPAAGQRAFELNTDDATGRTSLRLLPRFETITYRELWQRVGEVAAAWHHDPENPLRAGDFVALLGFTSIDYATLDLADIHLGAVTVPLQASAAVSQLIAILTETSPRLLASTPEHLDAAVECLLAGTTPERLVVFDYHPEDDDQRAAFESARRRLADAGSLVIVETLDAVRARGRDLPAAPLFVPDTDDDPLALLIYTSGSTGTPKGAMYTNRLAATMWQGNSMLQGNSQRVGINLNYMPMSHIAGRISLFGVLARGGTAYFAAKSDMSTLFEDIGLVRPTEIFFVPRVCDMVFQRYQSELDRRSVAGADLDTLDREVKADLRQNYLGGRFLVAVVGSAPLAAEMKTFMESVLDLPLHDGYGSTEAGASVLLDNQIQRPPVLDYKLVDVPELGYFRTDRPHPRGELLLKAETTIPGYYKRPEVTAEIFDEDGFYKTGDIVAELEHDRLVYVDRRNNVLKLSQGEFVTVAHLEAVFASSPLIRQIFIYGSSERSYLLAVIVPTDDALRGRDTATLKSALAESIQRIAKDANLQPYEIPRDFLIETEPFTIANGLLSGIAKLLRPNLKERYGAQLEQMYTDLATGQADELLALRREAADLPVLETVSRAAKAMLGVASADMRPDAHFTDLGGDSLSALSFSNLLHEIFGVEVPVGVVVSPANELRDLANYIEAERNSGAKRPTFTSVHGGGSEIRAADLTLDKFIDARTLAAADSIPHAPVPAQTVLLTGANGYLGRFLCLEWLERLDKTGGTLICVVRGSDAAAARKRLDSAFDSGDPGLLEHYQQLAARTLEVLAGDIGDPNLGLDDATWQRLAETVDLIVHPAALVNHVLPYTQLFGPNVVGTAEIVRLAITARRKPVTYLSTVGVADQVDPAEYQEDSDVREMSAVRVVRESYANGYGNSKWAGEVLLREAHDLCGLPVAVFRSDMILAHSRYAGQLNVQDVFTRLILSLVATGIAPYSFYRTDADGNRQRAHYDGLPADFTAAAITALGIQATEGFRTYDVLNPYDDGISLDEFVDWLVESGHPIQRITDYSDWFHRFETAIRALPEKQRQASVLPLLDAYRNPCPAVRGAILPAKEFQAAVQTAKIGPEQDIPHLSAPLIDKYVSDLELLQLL
Description: The conditions for the assay were taken from Applied and Environmental Microbiology 2004, 70, p 1874-1881.

[6] = system: PauA pimeloyl-CoA ligase (EC 6.2.1.14); settings: substrate of pauA; pimelate = 100%; cited from earlier work
[7] = molecular target: T5, Aminoadipate aminotransferase (Q64602) (Bos taurus, UniProt Q5E9N4); settings: cited from earlier work
T5 construct: host or cells: bovine kidney
T5 sequence (Q5E9N4 30-425, one chain of several): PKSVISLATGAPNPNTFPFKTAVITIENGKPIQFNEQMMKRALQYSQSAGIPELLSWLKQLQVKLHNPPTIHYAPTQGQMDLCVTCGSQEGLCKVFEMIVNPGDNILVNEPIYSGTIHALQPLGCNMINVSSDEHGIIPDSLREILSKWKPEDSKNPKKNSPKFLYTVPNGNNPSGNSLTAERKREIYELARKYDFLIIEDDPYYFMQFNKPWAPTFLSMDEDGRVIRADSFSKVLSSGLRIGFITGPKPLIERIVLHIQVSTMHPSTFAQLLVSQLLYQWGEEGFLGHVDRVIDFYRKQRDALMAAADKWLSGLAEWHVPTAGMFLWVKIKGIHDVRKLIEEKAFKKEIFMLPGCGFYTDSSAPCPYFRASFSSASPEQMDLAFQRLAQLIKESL

[8] = molecular target: T6, ACOT4 peroxisomal acyl-CoA thioesterase 4 (Mus musculus, UniProt Q8BWN8); settings: at concentrations up to 500 μM; cited from earlier work
T6 construct: His tag; host or cells: E. coli
T6 sequence (Q8BWN8 1-421): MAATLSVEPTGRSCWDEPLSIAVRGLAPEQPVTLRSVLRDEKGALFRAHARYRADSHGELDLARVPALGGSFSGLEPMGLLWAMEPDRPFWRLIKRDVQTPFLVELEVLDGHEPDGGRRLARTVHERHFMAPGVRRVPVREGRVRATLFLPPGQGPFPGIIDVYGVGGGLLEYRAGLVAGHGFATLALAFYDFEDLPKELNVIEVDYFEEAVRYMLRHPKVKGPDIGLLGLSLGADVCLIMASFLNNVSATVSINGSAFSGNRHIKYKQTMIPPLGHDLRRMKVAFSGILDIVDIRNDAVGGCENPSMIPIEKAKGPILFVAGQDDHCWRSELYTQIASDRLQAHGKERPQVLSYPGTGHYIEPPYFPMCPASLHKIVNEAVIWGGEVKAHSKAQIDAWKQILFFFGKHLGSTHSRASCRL

ACOT3 (formerly PTE-1a) = molecular target: T7, ACOT3 (formerly PTE-1a) (Mus musculus, UniProt Q9QYR7); settings: cited from earlier work
T7 construct: His tag; host or cells: E. coli
T7 sequence (Q9QYR7 1-432): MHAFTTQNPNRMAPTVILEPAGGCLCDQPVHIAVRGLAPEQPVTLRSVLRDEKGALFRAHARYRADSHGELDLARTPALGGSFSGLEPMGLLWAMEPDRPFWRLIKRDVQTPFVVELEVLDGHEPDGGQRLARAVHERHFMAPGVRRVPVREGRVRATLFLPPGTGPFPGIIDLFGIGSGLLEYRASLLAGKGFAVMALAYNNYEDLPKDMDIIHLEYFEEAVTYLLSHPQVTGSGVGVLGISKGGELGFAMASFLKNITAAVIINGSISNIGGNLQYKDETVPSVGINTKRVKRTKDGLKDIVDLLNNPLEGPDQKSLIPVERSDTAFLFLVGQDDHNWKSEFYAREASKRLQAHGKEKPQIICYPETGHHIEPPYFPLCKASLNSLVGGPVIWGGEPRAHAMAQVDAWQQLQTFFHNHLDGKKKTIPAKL

ACOT5 (formerly PTE-1c) = molecular target: T8, ACOT5 (formerly PTE-1c) (Mus musculus, UniProt Q6Q2Z6); settings: cited from earlier work
T8 construct: His tag; host or cells: E. coli
T8 sequence (Q6Q2Z6 1-421): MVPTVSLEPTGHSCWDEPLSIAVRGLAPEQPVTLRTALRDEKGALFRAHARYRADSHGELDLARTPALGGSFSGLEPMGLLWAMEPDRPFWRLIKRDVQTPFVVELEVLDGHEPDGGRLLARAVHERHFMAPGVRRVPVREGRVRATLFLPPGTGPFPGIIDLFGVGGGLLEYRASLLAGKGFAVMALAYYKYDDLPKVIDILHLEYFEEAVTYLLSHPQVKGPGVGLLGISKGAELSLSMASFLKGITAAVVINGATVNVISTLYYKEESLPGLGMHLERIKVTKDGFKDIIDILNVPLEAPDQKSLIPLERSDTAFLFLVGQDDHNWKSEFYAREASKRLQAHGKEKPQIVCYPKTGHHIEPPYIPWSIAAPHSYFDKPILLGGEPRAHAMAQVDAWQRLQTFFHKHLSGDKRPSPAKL

C[C@H](C(=O)O)[C@@H](N)C(=O)O (racemic) [DL-threo-beta methyl aspartate]
conversion to mesaconic acid [1]: complete conversion | conversion to mesaconic acid [2]: complete conversion | lyase activity (mesaconic acid formation) [3]: No activity

CC(C)(COP(=O)(O)OP(=O)(O)OC[C@H]1O[C@@H](n2cnc3c(N)ncnc32)[C@H](O)[C@@H]1OP(=O)(O)O)[C@@H](O)C(=O)NCCC(=O)NCCSC(=O)CCCCCC(=O)O [pimeloyl-CoA]
hydrolysis to pimelic acid [4]: Complete hydrolysis

O=C(O)CCCCCC(=O)O [Pimelic acid]
NADPH consumption (uncorrected) ([5]; 50 mM substrate, rCAR cell free extract 4.3 g/L whole cell equivalents, pH 7.5, ~20 deg C, change in absorbance over time): −0.00096 | NADPH consumption (corrected for background) ([5]; as uncorrected, corrected with negative control (BL21 empty vector) rate): −0.00103 | activity relative to the activity for benzoic acid ([5]; reduction to pimelic acid semialdehyde): > 100% | relative activity [6]: 100% | reduction in activity in the presence of pimelic acid [7]: 30%

CC(C)(COP(=O)(O)OP(=O)(O)OC[C@H]1O[C@@H](n2cnc3c(N)ncnc32)[C@H](O)[C@@H]1OP(=O)(O)O)[C@@H](O)C(=O)NCCC(=O)NCCS [CoASH]
inhibition of the reaction by CoASH [8]: not inhibited | inhibition with free CoASH (ACOT3 (formerly PTE-1a)): no inhibition | inhibition with free CoASH (ACOT5 (formerly PTE-1c)): no inhibition
